Experimental data: ChEMBL document CHEMBL4842329 (Eur J Med Chem, 2021)

Columns and labels:
[1] = molecular target: T1, Sodium-dependent serotonin transporter (Homo sapiens, UniProt P31645)
Description: Displacement of [125I]RTI55 binding from human wild type SERT

[2] = molecular target: T1, Sodium-dependent serotonin transporter; test: biochemical; format: cell-based, HEK293
[3] = molecular target: T1, Sodium-dependent serotonin transporter; format: cell-based, COS7
Description: Inhibition of human wild type SERT expressed in COS7 cells assessed as inhibition of [3H]5HT uptake measured for 40 hrs by scintillation counting analysis

T1 sequence (P31645 whole entry): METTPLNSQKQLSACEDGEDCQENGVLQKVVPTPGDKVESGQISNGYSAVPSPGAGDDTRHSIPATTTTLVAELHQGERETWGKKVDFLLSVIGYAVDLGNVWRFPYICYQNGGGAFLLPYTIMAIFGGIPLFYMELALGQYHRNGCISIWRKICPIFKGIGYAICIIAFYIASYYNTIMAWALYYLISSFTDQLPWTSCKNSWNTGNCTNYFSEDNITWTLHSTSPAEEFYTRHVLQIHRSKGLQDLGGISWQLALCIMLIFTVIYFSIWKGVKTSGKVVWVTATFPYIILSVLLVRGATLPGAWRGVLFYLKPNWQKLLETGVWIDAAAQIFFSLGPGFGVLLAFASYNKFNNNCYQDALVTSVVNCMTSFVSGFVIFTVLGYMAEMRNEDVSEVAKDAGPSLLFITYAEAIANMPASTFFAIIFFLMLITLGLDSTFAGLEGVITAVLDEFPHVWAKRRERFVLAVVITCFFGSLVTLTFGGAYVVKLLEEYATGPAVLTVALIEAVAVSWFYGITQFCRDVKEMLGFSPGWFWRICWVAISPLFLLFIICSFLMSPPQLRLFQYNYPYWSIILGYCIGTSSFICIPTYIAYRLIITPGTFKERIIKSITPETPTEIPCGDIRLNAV

| Compound | Ki [2] | other results |
| --- | --- | --- |
| Brc1ccc([C@@H]2CCNC[C@H]2COc2ccc3c(c2)OCO3)cc1 | – | Ki [1]: 1.07 nM |
| CNCCC(Oc1ccc(I)cc1F)c1ccccc1 (stereo not given) | 23 nM | – |
| CNCCC(Oc1ccc(Br)cc1)c1ccccc1 (stereo not given) | 24 nM | – |
| CNCCC(Oc1ccc(Br)c(F)c1)c1ccccc1 (stereo not given) | 19 nM | – |
| COC(=O)C1CCC2CC(O)C1N2c1ccccc1 (stereo not given) | – | IC50 [3]: 15 nM |
| CNCCC(Oc1cccc(F)c1)c1ccccc1 (stereo not given) | 349 nM | – |
| CNCCC(Oc1cccc(Cl)c1)c1ccccc1 (stereo not given) | 66 nM | – |
| CNCCC(Oc1ccc(Cl)cc1)c1ccccc1 (stereo not given) | 55 nM | – |
| CNCCC(Oc1ccccc1)c1ccccc1 (stereo not given) | 1460 nM | – |
| CNCCC(Oc1ccc(I)cc1)c1ccccc1 (stereo not given) | 14 nM | – |
| CNCCC(Oc1ccc(Cl)c(Cl)c1)c1ccccc1 (stereo not given) | 5 nM | – |
| COC(=O)C1CCC2CC(O)C1N2c1ccc(Cl)c(Cl)c1 (stereo not given) | – | IC50 [3]: 5650 nM |
| CNCCC(Oc1ccc(Br)cc1F)c1ccccc1 (stereo not given) | 41 nM | – |
| CNCCC(Oc1ccc(F)cc1)c1ccccc1 (stereo not given) | 543 nM | – |
| CNCCC(Oc1ccc(Cl)c(F)c1)c1ccccc1 (stereo not given) | 31 nM | – |

The next lines start with results.

| Ki [2] | Compound | other results |
| --- | --- | --- |
| 61 nM | COCCCC/C(=N\OCCN)c1ccc(Cl)cc1 | – |
| 15 nM | COCCCC/C(=N\OCCN)c1ccc(I)cc1 | – |
| 52 nM | CNCCC(Oc1ccc(Cl)cc1F)c1ccccc1 (stereo not given) | – |
| 23 nM | COCCCC/C(=N\OCCN)c1ccc(Br)cc1 | – |
| 9 nM | COCCCC/C(=N\OCCN)c1ccc(Cl)c(Cl)c1 | – |
| 1620 nM | COCCCC/C(=N\OCCN)c1ccc(F)cc1 | – |
| 202 nM | COCCCC/C(=N\OCCN)c1ccc(Cl)cc1F | – |
| 137 nM | COCCCC/C(=N\OCCN)c1ccc(Br)cc1F | – |
| 21 nM | COCCCC/C(=N\OCCN)c1ccc(Br)c(F)c1 | – |
| 62 nM | COCCCC/C(=N\OCCN)c1ccc(Cl)c(F)c1 | – |
